Experimental data from US10335409B2 (priority 2012, dated 2019).

Columns and labels:
Type in all cases: cell-based, hepatitis C virus
[1] = test system: genotype 3a (S52) wild type transient HCV replicon in Huh-7-derived cells; assay: Transient-transfected HCV replicon EC50, genotype 3a wild type; details: Hepatitis C virus; transient-transfected replicon genotype 3a wild type, 72 h; read-out: EC50 3A WT
[2] = test system: genotype 1a (H77) wild type transient HCV replicon in Huh-7-derived cells; assay: Transient-transfected HCV replicon EC50, genotype 1a wild type; details: Hepatitis C virus, 72 h, transient-transfected replicon genotype 1a wild type, read-out: EC50 1A WT
[3] = test system: genotype 1b NS3/4a protease inhibitor resistant variant D168A transient HCV replicon in Huh-7-derived cells; assay: Transient-transfected HCV replicon EC50, genotype 1b D168A; details: Hepatitis C virus, 72 h, read-out: EC50 1B D168A, transient-transfected replicon genotype 1b D168A resistant variant, 72 h
[4] = test system: genotype 1a NS3/4a protease inhibitor resistant variant R155K transient HCV replicon in Huh-7-derived cells; assay: Transient-transfected HCV replicon EC50, genotype 1a R155K; details: Hepatitis C virus, 72 h, read-out: EC50 1A R155K, transient-transfected replicon genotype 1a R155K resistant variant, 72 h
[5] = test system: genotype 1b (Con1) stable HCV replicon in Huh-7-derived cells; assay: Stable subgenomic HCV replicon EC50, genotype 1b (Renilla luciferase); details: Hepatitis C virus, stable replicon genotype 1b, 72 h, read-out: EC50 1B RLUC
Outline: (§1)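 Compounds, three-fold diluted, were applied to Huh-7-derived cells harbouring luciferase replicons (genotype 1a H77, 1b Con1, 2a JFH-1, 4a ED43, with strain-specific adaptive mutations). Seventy-two hours later, intracellular replication was gauged by Renilla luciferase activity and EC50 derived by regression.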

[6] = test system: genotype 4a (ED43) stable HCV replicon in Huh-7-derived cells; assay: Stable subgenomic HCV replicon EC50, genotype 4a (Renilla luciferase); details: Hepatitis C virus, 72 h, read-out: EC50 4A RLUC
Outline: as §1

[7] = test system: genotype 1b (Con1) wild type transient HCV replicon in Huh-7-derived cells; assay: Transient-transfected HCV replicon EC50, genotype 1b wild type; details: Hepatitis C virus, 72 h, transient-transfected replicon genotype 1b wild type, read-out: EC50 1B WT
[8] = test system: genotype 2a (JFH-1) stable HCV replicon in Huh-7-derived cells; assay: Stable subgenomic HCV replicon EC50, genotype 2a (Renilla luciferase); details: Hepatitis C virus, stable replicon genotype 2a, 72 h, read-out: EC50 2A RLUC
Outline: as §1

[9] = test system: genotype 3a (S52) stable HCV replicon in Huh-7-derived cells; assay: Stable subgenomic HCV replicon EC50, genotype 3a (Renilla luciferase); details: Hepatitis C virus, 72 h, read-out: EC50 3A RLUC
[10] = test system: genotype 1a (H77) stable HCV replicon in Huh-7-derived cells; assay: Stable subgenomic HCV replicon EC50, genotype 1a (Renilla luciferase); details: Hepatitis C virus, stable replicon genotype 1a, 72 h, read-out: EC50 1A RLUC
Outline: as §1

## CC[C@@H]1[C@@H]2CN(C(=O)[C@H](C(C)(C)C)NC(=O)O[C@@H]3C[C@H]3CCCCC(F)(F)c3nc4ccc(OC)cc4nc3O2)[C@@H]1C(=O)N[C@]1(C(=O)NS(=O)(=O)C2(C)CC2)C[C@H]1CC(F)F [Example 35, (1aR,5S,8S,9S,10R,22aR)-5-tert-butyl-N-[(1R,2S)-2-(2,2-difluoroethyl)-1-{[(1-methylcyclopropyl)sulfonyl]carbamoyl}cyclopropyl]-9-ethyl-18,18-difluoro-14-methoxy-3,6-dioxo-1,1a,3,4,5,6,9,10,18,19,20,21,22,22a-tetradecahydro-8H-7,10-methanocyclopropa[18,19][1,10,3,6]dioxadiazacyclononadecino[11,12-b]quinoxaline-8-carboxamide]
[1]
  EC50: 35 nM
[2]
  EC50: 12 nM
[3]
  EC50: 38 nM
[4]
  EC50: 17 nM
[5]
  EC50: 11 nM
[6]
  EC50: 7.6 nM
[7]
  EC50: 10 nM
[8]
  EC50: 7.4 nM
[9]
  EC50: 162 nM
[10]
  EC50: 9.1 nM

## COc1ccc2nc3c(nc2c1)O[C@H]1CN(C(=O)[C@H](C(C)(C)C)NC(=O)O[C@@H]2C[C@H]2CCCCC3)[C@H](C(=O)N[C@]2(C(=O)NS(=O)(=O)C3(C)CC3)C[C@H]2C(F)F)[C@@H]1CC#N [Example 50, (1aR,5S,8S,9S,10R,22aR)-5-tert-butyl-9-(cyanomethyl)-N-[(1R,2R)-2-(difluoromethyl)-1-{[(1-methylcyclopropyl)sulfonyl]carbamoyl}cyclopropyl]-14-methoxy-3,6-dioxo-1,1a,3,4,5,6,9,10,18,19,20,21,22,22a-tetradecahydro-8H-7,10-methanocyclopropa[18,19][1,10,3,6]dioxadiazacyclononadecino[11,12-b]quinoxaline-8-carboxamide]
[1]
  EC50: 26800 nM
[2]
  EC50: 4440 nM
[3]
  EC50: 4440 nM
[4]
  EC50: 3830 nM
[5]
  EC50: 4440 nM
[6]
  EC50: 4440 nM
[7]
  EC50: 4440 nM
[8]
  EC50: 379 nM
[9]
  EC50: 19700 nM
[10]
  EC50: 4440 nM

## CC[C@@H]1[C@@H]2CN(C(=O)[C@H](C(C)(C)C)NC(=O)O[C@@H]3C[C@H]3CCCCC(F)(F)c3nc4ccccc4nc3O2)[C@@H]1C(=O)N[C@]1(C(=O)NS(=O)(=O)C2CC2)C[C@H]1CC [Example 54, (1aR,5S,8S,9S,10R,22aR)-5-tert-butyl-N-{(1R,2R)-1-[(cyclopropylsulfonyl)carbamoyl]-2-ethylcyclopropyl}-9-ethyl-18,18-difluoro-3,6-dioxo-1,1a,3,4,5,6,9,10,18,19,20,21,22,22a-tetradecahydro-8H-7,10-methanocyclopropa[18,19][1,10,3,6]dioxadiazacyclononadecino[11,12-b]quinoxaline-8-carboxamide]
[1]
  EC50: 147 nM
[2]
  EC50: 19 nM
[3]
  EC50: 123 nM
[4]
  EC50: 27 nM
[5]
  EC50: 18 nM
[6]
  EC50: 13 nM
[7]
  EC50: 10 nM
[8]
  EC50: 76 nM
[9]
  EC50: 260 nM
[10]
  EC50: 33 nM

## CC[C@@H]1[C@@H]2CN(C(=O)[C@H](C(C)(C)C)NC(=O)O[C@@H]3C[C@H]3CC/C=C/C(F)(F)c3nc4ccc(C#N)cc4nc3O2)[C@@H]1C(=O)N[C@]1(C(=O)NS(=O)(=O)C2(C)CC2)C[C@H]1C(F)F [Example 84, (1aR,5S,8S,9S,10R,19E,22aR)-5-tert-butyl-14-cyano-N-[(1R,2R)-2-(difluoromethyl)-1-{[(1-methylcyclopropyl)sulfonyl]carbamoyl}cyclopropyl]-9-ethyl-18,18-difluoro-3,6-dioxo-1,1a,3,4,5,6,9,10,18,21,22,22a-dodecahydro-8H-7,10-methanocyclopropa[18,19][1,10,3,6]dioxadiazacyclononadecino[11,12-b]quinoxaline-8-carboxamide]
[1]
  EC50: 11 nM
[2]
  EC50: 5.4 nM
[3]
  EC50: 5.2 nM
[4]
  EC50: 4 nM
[5]
  EC50: 5.7 nM
[6]
  EC50: 6.4 nM
[7]
  EC50: 2.5 nM
[8]
  EC50: 7.2 nM
[9]
  EC50: 27 nM
[10]
  EC50: 5.9 nM

## CC[C@@H]1[C@@H]2CN(C(=O)[C@H](C(C)(C)C)NC(=O)O[C@@H]3C[C@H]3CCCCCc3nc4ccc(OC)cc4nc3O2)[C@@H]1C(=O)N[C@]1(C(=O)NS(=O)(=O)C2(C)CC2)C[C@H]1CC [Example 4, (1aR,5S,8S,9S,10R,22aR)-5-tert-butyl-9-ethyl-N-[(1R,2R)-2-ethyl-1-{[(1-methylcyclopropyl)sulfonyl]carbamoyl}cyclopropyl]-14-methoxy-3,6-dioxo-1,1a,3,4,5,6,9,10,18,19,20,21,22,22a-tetradecahydro-8H-7,10-methanocyclopropa[18,19][1,10,3,6]dioxadiazacyclononadecino[11,12-b]quinoxaline-8-carboxamide]
[1]
  EC50: 68 nM
[2]
  EC50: 7.1 nM
[3]
  EC50: 66 nM
[4]
  EC50: 20 nM
[5]
  EC50: 9.6 nM
[6]
  EC50: 7.9 nM
[7]
  EC50: 6.5 nM
[8]
  EC50: 16 nM
[9]
  EC50: 271 nM
[10]
  EC50: 10.7 nM

## COc1ccc2nc3c(nc2c1)O[C@H]1CN(C(=O)[C@H](C(C)(C)C)NC(=O)O[C@H]2CC4CC(C4)[C@@H]2CCCCC3)[C@H](C(=O)N[C@]2(C(=O)NS(=O)(=O)C3CC3)C[C@H]2C(F)F)[C@@H]1C [Example 72, (4aS,8S,11S,12S,13R,25aS)-8-tert-butyl-N-[(1R,2R)-1-[(cyclopropylsulfonyl)carbamoyl]-2-(difluoromethyl)cyclopropyl]-17-methoxy-12-methyl-6,9-dioxo-2,3,4,4a,6,7,8,9,12,13,21,22,23,24,25,25a-hexadecahydro-1H,11H-1,3:10,13-dimethanoquinoxalino[2,3-k][1,10,3,6]benzodioxadiazacyclononadecine-11-carboxamide]
[1]
  EC50: 642 nM
[2]
  EC50: 600 nM
[3]
  EC50: 687 nM
[4]
  EC50: 227 nM
[5]
  EC50: 300 nM
[6]
  EC50: 383 nM
[7]
  EC50: 165 nM
[8]
  EC50: 740 nM
[9]
  EC50: 1820 nM
[10]
  EC50: 365 nM

## C[C@@H]1[C@@H]2CN(C(=O)[C@H](C(C)(C)C)NC(=O)O[C@@H]3C[C@@H]4C[C@@H]4[C@H]3CCCCC(F)(F)c3nc4ccccc4nc3O2)[C@@H]1C(=O)N[C@]1(C(=O)NS(=O)(=O)C2(C)CC2)C[C@H]1C(F)F [Example 82, (1aS,2aR,6S,9S,10S,11R,23aR,23bS)-6-tert-butyl-N-[(1R,2R)-2-(difluoromethyl)-1-{[(1-methylcyclopropyl)sulfonyl]carbamoyl}cyclopropyl]-19,19-difluoro-10-methy-4,7-dioxo-1a,2,2a,4,5,6,7,10,11,19,20,21,22,23,23a,23b-hexadecahydro-1H,9H-8,11-methanocyclopropa[4′,5′]cyclopenta[1′,2′:18,19][1,10,3,6]dioxadiazacyclononadecino[11,12-b]quinoxaline-9-carboxamide]
[1]
  EC50: 16 nM
[2]
  EC50: 7.8 nM
[3]
  EC50: 5.7 nM
[4]
  EC50: 6.2 nM
[5]
  EC50: 9.3 nM
[6]
  EC50: 10 nM
[7]
  EC50: 4.1 nM
[8]
  EC50: 4.7 nM
[9]
  EC50: 25 nM
[10]
  EC50: 8.5 nM

## CC[C@@H]1[C@@H]2CN(C(=O)[C@H](C(C)(C)C)NC(=O)O[C@@H]3C[C@H]3CCCCC(F)(F)c3nc4ccccc4nc3O2)[C@@H]1C(=O)N[C@]1(C(=O)NS(=O)(=O)C2CC2)C[C@H]1C(F)F [Example 53, (1aR,5S,8S,9S,10R,22aR)-5-tert-butyl-N-[(1R,2R)-1-[(cyclopropylsulfonyl)carbamoyl]-2-(difluoromethyl)cyclopropyl]-9-ethyl-18,18-difluoro-3,6-dioxo-1,1a,3,4,5,6,9,10,18,19,20,21,22,22a-tetradecahydro-8H-7,10-methanocyclopropa[18,19][1,10,3,6]dioxadiazacyclononadecino[11,12-b]quinoxaline-8-carboxamide]
[1]
  EC50: 15 nM
[2]
  EC50: 5.3 nM
[3]
  EC50: 11 nM
[4]
  EC50: 5.6 nM
[5]
  EC50: 7.7 nM
[6]
  EC50: 2.8 nM
[7]
  EC50: 2 nM
[8]
  EC50: 13 nM
[9]
  EC50: 18 nM
[10]
  EC50: 51 nM
